# In patent publication US9862730B2, “Imidazothiadiazole derivatives as protease activated receptor 4 (PAR4) inhibitors for treating platelet aggregation” (BRISTOL-MYERS SQUIBB COMPANY, priority 2012, dated 2018):
# pIC50: −log10 of the molar value.
# Legend:
# PAR4 [1] = biological target: T1, PAR4 (Homo sapiens (Human), UniProt Q96RI0); assay: Gamma thrombin induced platelet aggregation assay in PRP (PRP assay); format: cell-based
# Text: The compounds of the current invention can be tested in vitro for their ability to inhibit platelet aggregation induced by gamma-thrombin as shown in Example C. Gamma-thrombin, a proteolytic product of alpha-thrombin which no longer interacts with PAR1, selectively cleaves and activates PAR4 (Soslau, G. et al., “Unique pathway of thrombin-induced platelet aggregation mediated by glycoprotein Ib”, J. Biol. Chem., 276:21173-21183 (2001)). Platelet aggregation can be monitored in a 96-well microplate aggregation assay format or using standard platelet aggregometer. The aggregation assay can also be employed to test the selectivity of the compound for inhibiting platelet aggregation induced by PAR4 agonist peptides, PAR1 agonist peptide, ADP, or thromboxane analogue U46619.
# The platelet rich plasma was isolated by centrifugation at 170 g for 14 minutes.
# The ability of the compounds of the current invention to inhibit platelet aggregation induced by gamma-thrombin was tested in a 96-well microplate aggregation assay format. Briefly, PRP or washed platelet suspension (100 μl) was pre-incubated for 5 minutes at room temperature with varying concentrations of compounds. Aggregation was initiated by ˜10-50 nM gamma thrombin (Haematologic Technologies, Essex Junction, Vt.), which was titrated daily to achieve 80% platelet aggregation. Refludan at 1 U/mL (Berlex, Montville, N.J.) was added to the gamma thrombin sample to prevent PAR1 activation induced by residual alpha-thrombin contamination. The plate was then placed into a 37° C. Molecular Devices (Sunnyvale, Calif.) SPECTRAMAX® Plus Plate Reader. […] Data was collected with SOFTMAX® 4.71 software. The plate also included an untreated control sample which served as ODmax, while buffer containing no platelets was the ODmin. Platelet aggregation was determined by subtracting the ODmax from the ODmin for the 100% aggregation value. In experimental samples, the observed transmission was subtracted from the minimum value and then compared to the 100% aggregation value to determine the percentage aggregation. IC50 values are determined using Excel Fit software.
# As indicated above, the PRP assay, an in vitro assay, measures the PAR4 antagonist activity of compounds tested as described in Example C.
# PAR4 [2] = biological target: T1, PAR4; assay: FLIPR assay in PAR4-expressing HEK293 cells (PAR4 antagonist activity, calcium mobilization); format: cell-based; conditions: FLIPR assay as described in Example A
# Outline: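 HEK293 cells stably expressing human PAR4 (also endogenous PAR1) in HBSS/10 mM HEPES, 0.67% DMSO final. Compound added and read for agonist activity, then 30 min room temperature before PAR4 agonist peptide; intracellular calcium mobilization monitored by FDSS/FLIPR.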
# T1 sequence (Q96RI0 18-385): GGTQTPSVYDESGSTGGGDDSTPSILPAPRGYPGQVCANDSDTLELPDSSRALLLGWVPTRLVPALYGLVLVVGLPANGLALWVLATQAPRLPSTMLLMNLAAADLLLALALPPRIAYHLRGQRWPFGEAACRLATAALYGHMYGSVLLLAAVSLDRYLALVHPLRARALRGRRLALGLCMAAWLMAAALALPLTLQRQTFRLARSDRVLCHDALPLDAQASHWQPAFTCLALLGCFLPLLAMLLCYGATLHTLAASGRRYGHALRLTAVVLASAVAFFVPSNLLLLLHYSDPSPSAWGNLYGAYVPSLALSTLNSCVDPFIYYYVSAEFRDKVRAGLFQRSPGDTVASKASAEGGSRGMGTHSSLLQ
SMILES,pIC50 (PAR4 [1]),pIC50 (PAR4 [2])
COc1cc(OCc2cccc(OCc3ccccc3)c2)c2cc(-c3cn4nc([C@H](C)F)sc4n3)oc2c1 [Example 407],6.33,8.95
COc1cc(OCc2cccc(OCc3cc(OC(C)C)cc(OC(C)C)c3)c2)c2cc(-c3cn4nc(OC)sc4n3)oc2c1 [Example 371],5.16,8.12
COc1cc(OCc2cccc(OCc3ccccc3)c2)c2cc(-c3cn4nc(Cl)sc4n3)oc2c1 [Example 405],6.26,8.33
COc1cc(OCc2cccc(OCc3ccc(Oc4ccccc4)cc3)c2)c2cc(-c3cn4nc(OC)sc4n3)oc2c1 [Example 372],5.47,8.64
CCC(C)(C)c1ccc2oc(-c3cn4nc(SC)sc4n3)nc2c1 [Example 131],< 4.52,6.97
COc1cc(OCc2cccc(OCc3ccccc3F)c2)c2cc(-c3cn4nc(OC)sc4n3)oc2c1 [Example 318],7.44,8.72
COc1cc(OCc2cccc(OCc3ccccc3CCc3ccccc3)c2)c2cc(-c3cn4nc(OC)sc4n3)oc2c1 [Example 364],5.24,7.98
COc1cc(OCc2cccc(OCc3ccc(F)cc3)c2)c2cc(-c3cn4nc(OC)sc4n3)oc2c1 [Example 346],6.83,8.77
COc1cc(COc2cc(OC)cc3oc(-c4cn5nc(OC)sc5n4)cc23)cc(OCc2ccccc2)c1 [Example 404],7.65,8.61
COc1cc(OCc2cccc(OCc3cccc(F)c3)c2)c2cc(-c3cn4nc(OC)sc4n3)oc2c1 [Example 327],7.42,
CCc1nn2cc(-c3cc4cccc(OCC#N)c4o3)nc2s1 [Example 53],,6.83
CSc1nn2cc(-c3cc4c(OCc5cccc(OCc6ccccc6)c5)cc(OS(=O)(=O)C(F)(F)F)cc4o3)nc2s1 [Example 420],,7.29
"Cc1cccc2oc(-c3cn4nc(C(C)(F)F)sc4n3)nc12 [Example 122, 2-(2-(1,1-Difluoroethyl)imidazo[2,1-b][1,3,4]thiadiazol-6-yl)-4-methylbenzo[d]oxazole]",,6.29
COc1cc(OCc2cccc(OCc3ccc(OCc4ccccc4)cc3)c2)c2cc(-c3cn4nc(OC)sc4n3)oc2c1 [Example 366],,6.78
CSc1nn2cc(-c3cc4ccccc4s3)nc2s1 [Example 17],< 4.52,
CSc1nn2cc(-c3nc4c(OCc5cccc(C#N)c5)cccc4o3)nc2s1 [Example 156],,5.99
CSc1nn2cc(-c3nc4cc(Cl)ccc4o3)nc2s1 [Example 125],,6.69
CSc1nn2cc(-c3nc4cc(F)ccc4o3)nc2s1 [Example 126],,7.98

SMILES,pIC50 (PAR4 [1]),pIC50 (PAR4 [2])
"CSc1nn2cc(-c3cc4c(OCc5cccnc5)cccc4o3)nc2s1 [Example 216, 2-(Methylthio)-6-(4-(pyridin-3-ylmethoxy)benzofuran-2-yl) imidazo[2,1-b][1,3,4]thiadiazole]",,6.32
COc1cc(OCc2cccc(OCc3ccccc3C(F)(F)F)c2)c2cc(-c3cn4nc(OC)sc4n3)oc2c1 [Example 326],,8.47
"COc1nn2cc(-c3cc4c(OCc5cccc(OCc6ccccc6)c5)cc(OC(F)F)cc4o3)nc2s1 [Example 416, 6-(4-((3-(Benzyloxy)benzyl)oxy)-6-(difluoromethoxy)benzofuran-2-yl)-2-methoxyimidazo[2,1-b][1,3,4]thiadiazole]",,8.96
Cc1cc2nc(-c3cn4nc(C(C)(F)F)sc4n3)oc2cc1C [Example 179],,6.65
CCc1nn2cc(-c3cc4cccc(O)c4o3)nc2s1 [Example 59],,6.54
COc1cc(OCc2cccc(OCc3ccc(F)c(C(F)(F)F)c3)c2)c2cc(-c3cn4nc(OC)sc4n3)oc2c1 [Example 315],,8.05
CSc1nn2cc(-c3nc4c(Cl)cccc4s3)nc2s1 [Example 187],,6.11
CSc1nn2cc(-c3nc4ccc(N)cc4o3)nc2s1 [Example 176],,6.15
CSc1nn2cc(-c3cc4cc(OCc5ccccc5)ccc4o3)nc2s1 [Example 230],,5.64
"CSc1nn2cc(-c3nc4c(OC[C@H]5CCCN5C(=O)OC(C)(C)C)cccc4o3)nc2s1 [Example 331, (R)-tert-Butyl 2-(((2-(2-(methylthio)imidazo[2,1-b][1,3,4]thiadiazol-6-yl)benzo[d]oxazol-4-yl)oxy)methyl)pyrrolidine-1-carboxylate]",,7.07
"CSc1nn2cc(-c3cc4c(Cl)nccc4o3)nc2s1 [Example 221, 4-Chloro-2-(2-(methylthio)imidazo[2,1-b][1,3,4]thiadiazol-6-yl)furo[3,2-c]pyridine]",,7.90
COc1cc(OCc2cccc(OCc3cc(F)cc(OCc4ccccc4)c3)c2)c2cc(-c3cn4nc(OC)sc4n3)oc2c1 [Example 395],,7.42
CCCCOc1ccc2nc(-c3cn4nc(CC)sc4n3)oc2c1 [Example 79],,6.10
CCCOc1ccc2nc(-c3cn4nc(CC)sc4n3)oc2c1 [Example 51],,6.41
CSc1nn2cc(-c3nc4c(C)cc(Cl)cc4s3)nc2s1 [Example 192],,6.00
CSc1nn2cc(-c3cc4c(OCc5cccc(OCc6ccccc6)c5)cc(O)cc4o3)nc2s1 [Example 421],,7.61
COc1cc(OCc2cccc(OCc3ccc(OCc4ccccc4)c(OC)c3)c2)c2cc(-c3cn4nc(OC)sc4n3)oc2c1 [Example 357],,8.31

# The next lines start with the values.
pIC50 (PAR4 [1]),pIC50 (PAR4 [2]),SMILES
< 4.52,,CCOc1nn2cc(-c3cc4ccccc4o3)nc2s1 [Example 26]
< 4.52,6.45,"COc1nn2cc(-c3nc4ccccc4s3)nc2s1 [Example 5, 2-(2-Methoxyimidazo[2,1-b][1,3,4]thiadiazol-6-yl)benzo[d]thiazole]"
6.91,8.04,COc1cc(OCc2cccc(OCc3ccccn3)c2)c2cc(-c3cn4nc(OC)sc4n3)oc2c1 [Example 319]
< 4.52,7.30,COc1nn2cc(-c3nc4cc(F)ccc4o3)nc2s1 [Example 135]
7.00,8.03,COc1cc(OCc2cccc(OCc3cccc(C)n3)c2)c2cc(-c3cn4nc(OC)sc4n3)oc2c1 [Example 307]
,7.73,Cc1nn2cc(-c3cc4ccccc4o3)nc2s1 [Example 41]
,7.85,"CSc1nn2cc(-c3cc4ccccc4o3)nc2s1 [Example 1, 6-(Benzofuran-2-yl)-2-(methylthio)imidazo[2,1-b][1,3,4]thiadiazole]"
,7.28,COc1nn2cc(-c3cc4cc(Br)c(OC)cc4o3)nc2s1 [Example 278]
,5.71,Cc1cc2oc(-c3cn4nc(C(C)(F)F)sc4n3)cc2cc1Cl [Example 274]
,5.43,"COc1cc(OCc2cccc(OCc3ccccc3)c2)c2oc(-c3cn4nc(OC)sc4n3)cc2c1 [Example 409, 6-(7-((3-(Benzyloxy)benzyl)oxy)-5-methoxybenzofuran-2-yl)-2-methoxyimidazo[2,1-b][1,3,4]thiadiazole]"
,8.45,COc1ccc2cc(-c3cn4nc(SC)sc4n3)oc2c1 [Example 20]
,8.46,COc1nn2cc(-c3cc4c(F)cccc4o3)nc2s1 [Example 279]
,6.47,CSc1nn2cc(-c3cc4ccc(C)c(C)c4o3)nc2s1 [Example 107]
,7.73,COc1cc(OC(C)C)c2cc(-c3cn4nc(SC)sc4n3)oc2c1 [Example 298]
,6.73,COc1nn2cc(-c3cc4cc(OC(F)(F)F)ccc4o3)nc2s1 [Example 98]
,6.92,Fc1cccc2oc(-c3cn4nc(Br)sc4n3)cc12 [Example 276]
,7.37,CC(F)(F)c1nn2cc(-c3cc4c(Cl)cc(Cl)cc4o3)nc2s1 [Example 238]
,6.82,Cc1ccc2oc(-c3cn4nc(C(C)(F)F)sc4n3)cc2c1 [Example 232]
,6.56,COc1cc(Br)cc2cc(-c3cn4nc(Br)sc4n3)oc12 [Example 286]
,6.48,"C[C@@H](F)c1nn2cc(-c3cc4c(Cl)cc(Cl)cc4o3)nc2s1 [Example 213A, (R)-6-(4,6-Dichlorobenzofuran-2-yl)-2-(1-fluoroethyl)imidazo[2,1-b][1,3,4]thiadiazole]"
,6.49,COc1nn2cc(-c3nc4cc(C(C)(C)C)ccc4o3)nc2s1 [Example 134]
,8.07,CCc1nn2cc(-c3cc4cccc(OC)c4o3)nc2s1 [Example 37]
,7.78,"COCOc1cccc2oc(-c3cn4nc(SC)sc4n3)cc12 [Example 215, 6-(4-(Methoxymethoxy)benzofuran-2-yl)-2-(methylthio)imidazo[2,1-b][1,3,4]thiadiazole]"
,6.49,Fc1cccc2cc(-c3cn4nc(Br)sc4n3)oc12 [Example 259]
